From patent publication US4714765A, “Rhodanine derivatives and process for preparing the same” (Taiho Pharmaceutical Company, Limited, priority 1985, dated 1987)

Molecular target: T1, Rat Lens Aldose Reductase (Rattus norvegicus, UniProt P07943)
T1 construct: The lenses were then homogenized in cold distilled water; from tissue; host or cells: lens of Sprague-Dawley rats, supernatant of homogenate (10,000 rpm, 10 min)
Experiment: Aldose reductase inhibitory activity (Rat Lens Aldose Reductase)
Assay type: biochemical, rat (Sprague-Dawley)
Conditions: rat lens homogenate supernatant; glyceraldehyde as substrate; decrease in NADPH at 340 nm; read-out: IC50 (concentration of the test compound at which 50% inhibition of aldose reductase is achieved)
Protocol: Aldose reductase inhibitory activity
Rat Lens Aldose Reductase:
This test was conducted according to the method described in J. Biol. Chem., 240, 877 (1965).
Sprague-Dawley rats weighing 100 to 150 g were suffocated with carbon dioxide and the lenses were carefully removed. The lenses were then homogenized in cold distilled water (0.4 ml/lens) and the homogenate was centrifuged at 10,000 rpm for 10 min. The enzyme, i.e. aldose reductase was spectrophotometrically measured by following the decrease in NADPH at 340 nm with glyceraldehyde as substrate. An IC50 i.e., a concentration of the test compound at which 50% inhibition of aldose reductase is achieved was calculated from estimated dose-response curves.

Compound	IC50
Cc1cc(C=CC=C2SC(=S)NC2=O)on1 [Compound 1a, 5-[3-(3-methyl-5-isoxazolyl)-1,3-propanediene]rhodanine]	4000 nM
Cc1cc(C=CC=C2SC(=S)N(CC(=O)O)C2=O)on1 [Compound 1b]	130 nM
Cc1cc(CC2SC(=S)N(CC(=O)O)C2=O)on1 (stereo not drawn) [Compound 1g, 5-(3-methyl-5-isoxazolylmethyl)rhodanine-3-acetic acid]	640 nM
